# Experimental data: patent US10053443B2, “2-phenylbenzofuran derivatives, method for preparing the same and use of the same for treating inflammatory disease” (KOREA RESEARCH INSTITUTE OF BIOSCIENCE AND BIOTECHNOLOGY, priority 2014, dated 2018)
# Assay: Toxicity test, single oral administration: toxicological changes in abdomen, chest and major organs (autopsy)
# Assay type: in vivo
# Settings: for Clinical sign: Abdominal cavity (toxicological changes, animals affected/total) / Clinical sign: Major organs (toxicological changes, animals affected/total) / Clinical sign: Thoracic cavity (toxicological changes, animals affected/total) / Mortality (animals dead/total) / Clinical sign: Abdominal cavity (toxicological changes), Total / Clinical sign: Major organs (toxicological changes), Total / Clinical sign: Thoracic cavity (toxicological changes), Total / Mortality, Total: single oral administration, mouse
# Description: 1. Test Material and Control Material • Test material: compound of Example 4 • Storage condition: frozen storage • Control material: 10% DMSO+10% Tween 20 in PBS
# 2. Test System • Animal: female Balb/c • Animal provider: Koatech • Age and weight of animal • Age at the time of arrival: 5 week • Number at the time of arrival: 28 • Age at the start of administration: 6 week • Number at the start of administration: 28 ? • Weight at the start of administration: 16.1˜16.5 g
# 3. Administration Method and Preparation of Test Material • Administration method: single oral administration • Preparation of test material: Test materials were prepared by using 10% DMSO+10% Tween-20 in PBS as a solvent for each dose. The preparation was carried out immediately before the administration
# On the 10th day after the administration, all the surviving animals were anesthetized with CO2 gas. Laparotomy was performed and the animals were sacrificed by venesection from the abdominal aorta. Then, all the internal organs of the animal were observed by the naked eye.
# The compound of Example 4 was orally administered once to female Balb/c mouse at the doses of 250, 500, and 1000 mg/kg in order to obtain the information on acute toxicity of the compound of Example 4, followed by investigation of death rate, general symptoms, and weight changes for 10 days by autopsy.
# After the administration of the compound of Example 4, the mice were autopsied on the last day, and the toxicological changes in the abdomen, chest and major organs were observed.
structure (smiles),measurement,setting,value
"COc1cc(CCCO)cc2cc(-c3ccc(C)cc3)oc12 [Example 4, 3-(7-methoxy-2-p-tolylbenzofuran-5-yl)propane-1-ol]","Clinical sign: Abdominal cavity (toxicological changes, animals affected/total)","250 mg/kg, Day 1",0/7
same,"Clinical sign: Major organs (toxicological changes, animals affected/total)","250 mg/kg, Day 1",0/7
same,"Clinical sign: Thoracic cavity (toxicological changes, animals affected/total)","250 mg/kg, Day 1",0/7
same,Mortality (animals dead/total),"250 mg/kg, Day 1",0/7
same,"Clinical sign: Abdominal cavity (toxicological changes, animals affected/total)","250 mg/kg, Day 7",0/7
same,"Clinical sign: Major organs (toxicological changes, animals affected/total)","250 mg/kg, Day 7",0/7
same,"Clinical sign: Thoracic cavity (toxicological changes, animals affected/total)","250 mg/kg, Day 7",0/7
same,Mortality (animals dead/total),"250 mg/kg, Day 7",0/7
same,"Clinical sign: Abdominal cavity (toxicological changes, animals affected/total)","250 mg/kg, Day 8",0/7
same,"Clinical sign: Major organs (toxicological changes, animals affected/total)","250 mg/kg, Day 8",0/7
same,"Clinical sign: Thoracic cavity (toxicological changes, animals affected/total)","250 mg/kg, Day 8",0/7
same,Mortality (animals dead/total),"250 mg/kg, Day 8",0/7
same,"Clinical sign: Abdominal cavity (toxicological changes, animals affected/total)","250 mg/kg, Day 9",0/7
same,"Clinical sign: Major organs (toxicological changes, animals affected/total)","250 mg/kg, Day 9",0/7
same,"Clinical sign: Thoracic cavity (toxicological changes, animals affected/total)","250 mg/kg, Day 9",0/7
same,Mortality (animals dead/total),"250 mg/kg, Day 9",0/7
same,"Clinical sign: Abdominal cavity (toxicological changes, animals affected/total)","250 mg/kg, Day 10",0/7
same,"Clinical sign: Major organs (toxicological changes, animals affected/total)","250 mg/kg, Day 10",0/7
same,"Clinical sign: Thoracic cavity (toxicological changes, animals affected/total)","250 mg/kg, Day 10",0/7
same,Mortality (animals dead/total),"250 mg/kg, Day 10",0/7
same,"Clinical sign: Abdominal cavity (toxicological changes), Total",250 mg/kg,0
same,"Clinical sign: Major organs (toxicological changes), Total",250 mg/kg,0
same,"Clinical sign: Thoracic cavity (toxicological changes), Total",250 mg/kg,0
same,"Mortality, Total",250 mg/kg,0
same,"Clinical sign: Abdominal cavity (toxicological changes, animals affected/total)","500 mg/kg, Day 1",0/7
same,"Clinical sign: Major organs (toxicological changes, animals affected/total)","500 mg/kg, Day 1",0/7
same,"Clinical sign: Thoracic cavity (toxicological changes, animals affected/total)","500 mg/kg, Day 1",0/7
same,Mortality (animals dead/total),"500 mg/kg, Day 1",0/7
same,"Clinical sign: Abdominal cavity (toxicological changes, animals affected/total)","500 mg/kg, Day 7",0/7
same,"Clinical sign: Major organs (toxicological changes, animals affected/total)","500 mg/kg, Day 7",0/7
same,"Clinical sign: Thoracic cavity (toxicological changes, animals affected/total)","500 mg/kg, Day 7",0/7
same,Mortality (animals dead/total),"500 mg/kg, Day 7",0/7
same,"Clinical sign: Abdominal cavity (toxicological changes, animals affected/total)","500 mg/kg, Day 8",0/7
same,"Clinical sign: Major organs (toxicological changes, animals affected/total)","500 mg/kg, Day 8",0/7
same,"Clinical sign: Thoracic cavity (toxicological changes, animals affected/total)","500 mg/kg, Day 8",0/7
same,Mortality (animals dead/total),"500 mg/kg, Day 8",0/7
same,"Clinical sign: Abdominal cavity (toxicological changes, animals affected/total)","500 mg/kg, Day 9",0/7
same,"Clinical sign: Major organs (toxicological changes, animals affected/total)","500 mg/kg, Day 9",0/7
same,"Clinical sign: Thoracic cavity (toxicological changes, animals affected/total)","500 mg/kg, Day 9",0/7
same,Mortality (animals dead/total),"500 mg/kg, Day 9",0/7
same,"Clinical sign: Abdominal cavity (toxicological changes, animals affected/total)","500 mg/kg, Day 10",0/7
same,"Clinical sign: Major organs (toxicological changes, animals affected/total)","500 mg/kg, Day 10",0/7
same,"Clinical sign: Thoracic cavity (toxicological changes, animals affected/total)","500 mg/kg, Day 10",0/7
same,Mortality (animals dead/total),"500 mg/kg, Day 10",0/7
same,"Clinical sign: Abdominal cavity (toxicological changes), Total",500 mg/kg,0
same,"Clinical sign: Major organs (toxicological changes), Total",500 mg/kg,0
same,"Clinical sign: Thoracic cavity (toxicological changes), Total",500 mg/kg,0
same,"Mortality, Total",500 mg/kg,0
same,"Clinical sign: Abdominal cavity (toxicological changes, animals affected/total)","1000 mg/kg, Day 1",0/7
same,"Clinical sign: Major organs (toxicological changes, animals affected/total)","1000 mg/kg, Day 1",0/7
same,"Clinical sign: Thoracic cavity (toxicological changes, animals affected/total)","1000 mg/kg, Day 1",0/7
same,Mortality (animals dead/total),"1000 mg/kg, Day 1",0/7
same,"Clinical sign: Abdominal cavity (toxicological changes, animals affected/total)","1000 mg/kg, Day 7",0/7
same,"Clinical sign: Major organs (toxicological changes, animals affected/total)","1000 mg/kg, Day 7",0/7
same,"Clinical sign: Thoracic cavity (toxicological changes, animals affected/total)","1000 mg/kg, Day 7",0/7
same,Mortality (animals dead/total),"1000 mg/kg, Day 7",0/7
same,"Clinical sign: Abdominal cavity (toxicological changes, animals affected/total)","1000 mg/kg, Day 8",0/7
same,"Clinical sign: Major organs (toxicological changes, animals affected/total)","1000 mg/kg, Day 8",0/7
same,"Clinical sign: Thoracic cavity (toxicological changes, animals affected/total)","1000 mg/kg, Day 8",0/7
same,Mortality (animals dead/total),"1000 mg/kg, Day 8",0/7
same,"Clinical sign: Abdominal cavity (toxicological changes, animals affected/total)","1000 mg/kg, Day 9",0/7
same,"Clinical sign: Major organs (toxicological changes, animals affected/total)","1000 mg/kg, Day 9",0/7
same,"Clinical sign: Thoracic cavity (toxicological changes, animals affected/total)","1000 mg/kg, Day 9",0/7
same,Mortality (animals dead/total),"1000 mg/kg, Day 9",0/7
same,"Clinical sign: Abdominal cavity (toxicological changes, animals affected/total)","1000 mg/kg, Day 10",0/7
same,"Clinical sign: Major organs (toxicological changes, animals affected/total)","1000 mg/kg, Day 10",0/7
same,"Clinical sign: Thoracic cavity (toxicological changes, animals affected/total)","1000 mg/kg, Day 10",0/7
same,Mortality (animals dead/total),"1000 mg/kg, Day 10",0/7
same,"Clinical sign: Abdominal cavity (toxicological changes), Total",1000 mg/kg,0
same,"Clinical sign: Major organs (toxicological changes), Total",1000 mg/kg,0
same,"Clinical sign: Thoracic cavity (toxicological changes), Total",1000 mg/kg,0
same,"Mortality, Total",1000 mg/kg,0
same,"toxicological changes (abdomen, chest and major organs)","250, 500, 1000 mg/kg single oral, autopsy on last day",not observed
